Results on 2 compounds are retold here after patent US20060171983A1, “Use of Vitamin D receptor activators or Vitamin D analogs to treat cardiovascular disease” (priority 2003, published 2006).

Data set [1] is described as follows: Observational cohort study of hospitalization outcomes in hemodialysis patients. It counts as in vivo, human. The text has this: This study was expanded to include patients who received no Vitamin D receptor activator treatment. [“Improved hospitalization outcomes in hemodialysis patients treated with paricalcitol.” J. Melnick, et al., abstract book from World Congress of Nephrology, Jun. 8-12, 2003, Berlin.

The test system of the next data set is human CASMC. The data set is described as follows: 45Ca uptake into primary culture of human coronary artery smooth muscle cells. To be noted: 1-100 nM, cells in N1 or 60% N1/40% P1 media, 5 days. The procedure:
Primary cultured human CASMC were grown to >80% confluence and used within five passages. Cells were treated with drugs for 5 days in the appropriate medium, and then changed back to base medium (N1: DMEM containing 1.8 mM Ca^+2 and 0.9 mM PO−4) containing 0.2 μCi/ml ^45Ca for 24 hr. Afterwards, cells were washed with PBS three times and radioactivity measured by liquid scintillation.

Data set [2] relates to bovine vascular smooth muscle cells (SMC). To be noted: 10^-7 to 10^-9 M, in vitro; cited from earlier work.
Another data set has as its system PAI-1. The data set is described as follows: PAI-1 Western blot in primary culture of human coronary artery smooth muscle cells. It counts as cell-based. To be noted: 24 hr. The procedure:
Human coronary artery smooth muscle cells were incubated with paricalcitol or calcitriol at the indicated concentration for 24 hr at 37° C. Samples were solubilized in SDS-PAGE sample buffer, and the protein content in each sample was determined by the Bio-Rad dye-binding protein assay. Samples were resolved by SDS-PAGE using a 4-12% gel, and proteins were electrophoretically transferred to PVDF membrane for Western blotting. The membrane was blotted for 1 h at 25° C. with 5% nonfat dry milk in PBS-T and then incubated with a mouse anti-PAI-1 monoclonal antibody in PBS-T overnight at 4° C. The membrane was washed with PBS-T and incubated with a horseradish peroxidase-labeled […] antibody for 1 h at 25° C. The membrane was then incubated with detection reagent (SuperSignal WestPico). The specific bands were visualized by exposing the paper to Kodak BioMax films.

Data set [3] is classed as in vivo, rat. The procedure: It is clinically important to suppress elevated serum PTH levels in ESRD patients with established secondary hyperparathyroidism (SHPT) independent of hypercalcemia. Moreover, the 5/6 uremic rat model has effectively predicted the clinical profile of vitamin D analogues with respect to PTH and hypercalcemia. Thus, a direct comparison was conducted of paricalcitol (PARI) and doxercalciferol (DOX) in male Sprague Dawley rats subjected to 5/6 nephrectomy (surgical ablation) placed on 4 weeks of a high phosphorous diet (0.9% phos., 0.6% Ca) to establish SHPT. On Day 0, rats received vehicle (VEH; 5% ethanol, 95% propylene glycol; 0.4 ml/kg; IP) or drug (0.083, 0.17, 0.33, 0.66 mcg/kg; n=7-10/group) 3 times/week for 12 days. Blood samples were collected 24 hr post dose (Day 13). Day 0 values (mean±SEM) for: creatinine (VEH vs sham) were 1.02±0.05 vs 0.48±0.01 mg/dL; PTH, 1320±185 vs 178±11 pg/ml; blood ionized calcium (iCa; 1.26±0.01 vs 1.30±0.01 mmol/L); phosphorous (8.70±0.34 vs 7.36±0.09 mg/dL). In VEH, the ratio of Day 13/Day 0 iCa values declined to 0.93±0.02 vs 1.02±0.01 for sham; PTH and phosphorous tended to increase. […] PARI had no effect on iCa at 0.33 mcg/kg whereas the iCa ratio increased modestly to 1.05±0.02*# at 0.66 mcg/kg, less than that of DOX. The Day 13/Day 0 PTH ratios for DOX fell to 0.43±0.12, 0.26±0.06*, and 0.22±0.11* in response to 0.18, 0.33, 0.66 mcg/kg, respectively, while PARI decreased PTH ratios to 0.37±0.07*, 0.33±0.06*, 0.13±0.02*. Serum phosphorus was not affected in any treatment group. […] Thus, in the uremic rat with established SHPT, DOX suppresses serum PTH levels concomitant with dose-dependent elevations in ionized calcium greater than those caused by equal doses of. PARI. At these doses, PARI effectively reduces PTH without eliciting dose-dependent changes in ionized blood calcium. *=p<0.05 vs. VEH ANOVA; # p<0.05 unpaired t test DOX vs PARI

The nature of data set [4]: Active calcium transport in duodenum ex vivo. Also noted: species or system rat. To be noted: uremic rats with SHPT.
A short description of data set [5]: Vascular calcification in 5/6 nephrectomized uremic rats. It counts as in vivo, rat. The procedure:
The 5/6 nephrectomized rats were obtained from Charles River Labs. (Wilmington, Mass.). Two weeks after nephrectomy, rats were put on a diet containing 0.9% phosphorous and 0.6% calcium for 4 weeks, followed by treatment with vehicle (5% ethanol+95% propylene glycol, 0.4 ml/kg), paricalcitol or doxercalciferol at 0.67 μg/kg, i.p., 3 times/week, for 2 weeks. Twenty-four hours after the last dosing, blood was collected via tail vein under ketamine anesthesia (50 mg/kg) and aorta collected for calcification studies. […] After the aortas were removed in a sterile manner from the rats, the aventitia was gently removed and each aorta was washed three times with medium. A segment of each aorta was processed for calcium and phoshphorus determination. A separate portion of each aorta was denuded, cut into 2-3-mm rings and placed in DMEM containing 0.2 μCi/ml ^45Ca for 3 days at 37° C. Afterwards, aortic rings were washed, dried, weighed, and then dissolved to determine radioactivity. […] Both paricalcitol and doxercalciferol at 0.67 μg/kg elevated iCa (˜25%) and suppressed PTH (>90%).

Setting [6] is: 0.67 μg/kg i.p. 3 times/week for 2 weeks.

Where two headings read alike, the source gives them in different places.

Take `C=C1/C(=C\C=C2/CCC[C@]3(C)[C@@H]([C@H](C)CCCC(C)(C)O)CC[C@@H]23)C[C@@H](O)C[C@@H]1O` [calcitriol]: in data set [1] (hemodialysis patients, FIG. 2), the “median number of days spent in the hospital (hospital days per year)” value is 10.6 days and the “median number of hospitalizations in a year” value was 2.2. For the same compound, in data set [1] (regression analysis, FIG. 3), the “fewer hospital days compared to the No Vitamin D group” value is listed as 7.7 days and the “fewer hospitalizations compared to the No Vitamin D group” value is given as “no statistical difference”. Also, the “effect on 45Ca uptake” value with human CASMC is recorded as “no significant effects”. For the same compound, the “calcification of bovine vascular smooth muscle cells” value in data set [2] is recorded as “dose dependent increase”. The “potency in reducing the PAI level” value in the data set on PAI-1 was “equally potent”.
As to `C=C1/C(=C\C=C2/CCC[C@]3(C)[C@@H]([C@H](C)/C=C/[C@H](C)C(C)C)CC[C@@H]23)C[C@@H](O)C[C@@H]1O` [doxercalciferol], the “Day 13/Day 0 PTH ratio” value in data set [3] (0.18 mcg/kg IP 3 times/week for 12 days) came to 0.43±0.12; in data set [3] (0.33 mcg/kg IP 3 times/week for 12 days), 0.26±0.06; in data set [3] (0.66 mcg/kg IP 3 times/week for 12 days) it was 0.22±0.11. The “active calcium transport in duodenum ex vivo” value in data set [4] is “dose-dependent increase”. The “elevation of iCa” value in data set [5] (0.67 μg/kg) is on record as roughly 25%. Further, the “Ca content in aorta compared to vehicle” value in data set [5] (setting [6]) is 1.0 fold. In addition, the “phosphorus content in aorta compared to vehicle” value in data set [5] (setting [6]) is listed as 17 fold. Besides, the “45Ca uptake in aorta rings compared to vehicle” value in data set [5] (0.67 μg/kg i.p. 3 times/week for 2 weeks, rings 3 days in 45Ca) worked out at 40 fold.
